Key:
Format in all cases: biochemical
Gelatinase = experiment: MMP inhibition by particle concentration fluorescence technique (gelatinase); details: pH 7.5; 15 min enzyme preincubation; substrate 1-3 h at room temperature; read-out: MMP Inhibition Constants, Gelatinase Ki
Procedure: (§1) Inhibitory activity is evaluated in one or more of the MMP enzymes (stromelysin, gelatinase, and collagenase) in vitro using a particle concentration fluorescence techniques. An inhibitor binds to MMP enzymes prevents the degradation of a substrate of stromelysin, gelatinase, or collagenase. The substrate is attached with a fluorescein and a biotin. The intact substrate then binds to an avidin-coated particle via the biotin moiety. Once the particle is washed and dried, a fluorescent signal is generated since the fluorescent group is attached to the particle. Without an inhibitor present, the substrate is degraded by MMP enzymes and the fluorescein group is removed, therefore, no fluorescent signal can be detected. Testing compounds are dissolved in DMSO to the desired concentration, then the solutions are diluted to 1:5 with MMP buffer (50 mM Tris-HCl, pH 7.5; 150 mM NaCl; 0.02% NAN3). Serial two-fold dilutions of each compound are prepared. A concentrated, activated enzyme solution is transferred into each plate of the testing compounds, and the mixture is incubated at room temperature for 15 minutes. Thawed MMP substrate is then added into all plates, and the plates are incubate in the dark for 1-3 hours at room temperature. At this point, the substrate mixture is reacted with 0.1% avidin-coated polystyrene particles.

Collagenase = target: T1, Collagenase (Homo sapiens, UniProt P03956); experiment: MMP inhibition by particle concentration fluorescence technique (collagenase); details: pH 7.5; 15 min enzyme preincubation; substrate 1-3 h at room temperature; read-out: MMP Inhibition Constants, Collagenase Ki
T1 sequence (P03956 100-469): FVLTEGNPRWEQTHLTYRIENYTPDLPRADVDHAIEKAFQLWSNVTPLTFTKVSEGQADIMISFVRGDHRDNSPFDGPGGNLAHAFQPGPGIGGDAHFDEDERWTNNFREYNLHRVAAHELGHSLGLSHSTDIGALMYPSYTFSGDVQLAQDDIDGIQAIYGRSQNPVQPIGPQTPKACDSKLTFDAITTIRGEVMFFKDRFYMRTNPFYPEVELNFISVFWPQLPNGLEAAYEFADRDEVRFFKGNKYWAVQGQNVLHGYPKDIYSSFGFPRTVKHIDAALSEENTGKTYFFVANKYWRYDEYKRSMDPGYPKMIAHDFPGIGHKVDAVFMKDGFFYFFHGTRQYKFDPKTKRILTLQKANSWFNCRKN
Procedure: as §1

Stromelysin = Stromelysin (Homo sapiens, UniProt P08254); experiment: MMP inhibition by particle concentration fluorescence technique (stromelysin); details: pH 7.5; 15 min enzyme preincubation; substrate 1-3 h at room temperature; read-out: MMP Inhibition Constants, Stromelysin Ki
Source text: An inhibitor binds to MMP enzymes prevents the degradation of a substrate of stromelysin, gelatinase, or collagenase. The substrate is attached with a fluorescein and a biotin. The intact substrate then binds to an avidin-coated particle via the biotin moiety. Once the particle is washed and dried, a fluorescent signal is generated since the fluorescent group is attached to the particle. Without an inhibitor present, the substrate is degraded by MMP enzymes and the fluorescein group is removed, therefore, no fluorescent signal can be detected. […] Serial two-fold dilutions of each compound are prepared. A concentrated, activated enzyme solution is transferred into each plate of the testing compounds, and the mixture is incubated at room temperature for 15 minutes.

Sequence of Stromelysin (P08254 100-477): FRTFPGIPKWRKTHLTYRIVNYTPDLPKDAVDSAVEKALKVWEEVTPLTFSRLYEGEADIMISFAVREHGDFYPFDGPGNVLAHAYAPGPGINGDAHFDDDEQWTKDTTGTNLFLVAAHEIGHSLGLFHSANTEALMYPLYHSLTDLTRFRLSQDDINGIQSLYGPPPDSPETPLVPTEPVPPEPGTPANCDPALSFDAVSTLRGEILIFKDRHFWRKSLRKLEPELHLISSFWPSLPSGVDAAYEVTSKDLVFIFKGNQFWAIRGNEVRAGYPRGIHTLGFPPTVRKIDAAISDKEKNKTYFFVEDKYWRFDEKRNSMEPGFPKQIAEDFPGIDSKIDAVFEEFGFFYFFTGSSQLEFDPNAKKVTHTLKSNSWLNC

| Ki (Gelatinase) | Ki (Collagenase) | Ki (Stromelysin) | Structure (SMILES) |
| --- | --- | --- | --- |
| 0.204 µM | 5.7 µM | – | CC(C)C[C@@]1([C@@H](CCN2C(=O)c3ccccc3C2=O)C(=O)NO)CCN(CCc2ccccc2)C1=O (relative stereo) [Example 4, α-[2-(1,3-Dihydro-1,3-dioxo-2H-isoindol-2-yl)ethyl]-N-hydroxy-3-(2-methylpropyl)-2-oxo-1-(2-phenylethyl)-3-pyrrolidineacetamide] |
| 0.78 µM | 14.3 µM | 0.903 µM | CC(C)C[C@@]1([C@@H](CCN2C(=O)c3ccc(N)cc3C2=O)C(=O)NO)CCN(CCc2ccccc2)C1=O (relative stereo) [Example 9, α-[2-(5-Amino-1,3-dihydro-1,3-dioxo-2H-isoindol-2-yl)ethyl]-N-hydroxy-3-(2-methylpropyl)-2-oxo-1-(2-phenylethyl)-3-pyrrolidineacetamide] |
| 0.498 µM | 0.073 µM | 1.02 µM | CC(C)C[C@@]1([C@@H](CCN2C(=O)c3ccc([N+](=O)[O-])cc3C2=O)C(=O)NO)CCN(CCc2ccccc2)C1=O (relative stereo) [Example 11, N-Hydroxy-3-(2-methylpropyl)-α-[2-(5-nitro-1,3-dihydro-1,3-dioxo-2H-isoindol-2-yl)ethyl]-2-oxo-1-(2-phenylethyl)-3-pyrrolidineacetamide] |
| 0.097 µM | 0.533 µM | 0.046 µM | CC(C)C[C@@]1([C@@H](CCN2C(=O)c3ccc(F)cc3C2=O)C(=O)NO)CCN(CCc2ccccc2)C1=O (relative stereo) [Example 14, α-[2-(5-Fluoro-1,3-dihydro-1,3-dioxo-2H-isoindol-2-yl)ethyl]-N-hydroxy-3-(2-methylpropyl)-2-oxo-1-(2-phenylethyl)-3-pyrrolidineacetamide] |
| 0.782 µM | 21.3 µM | 0.188 µM | CC(C)C[C@@]1([C@@H](CCCN2C(=O)c3ccccc3C2=O)C(=O)NO)CCN(CCc2ccccc2)C1=O (relative stereo) [Example 15] |
| 2.87 µM | 14.2 µM | 0.0924 µM | CC(C)C[C@@]1([C@@H](CN2C(=O)c3ccccc3C2=O)C(=O)NO)CCN(CCc2ccccc2)C1=O (relative stereo) [Example 16, α-[2-(1,3-Dihydro-1,3-dioxo-2H-isoindol-2-yl)methyl]-N-hydroxy-3-(2-methylpropyl)-2-oxo-1-(2-phenylethyl)-3-pyrrolidineacetamide] |
| 1.3 µM | 2.07 µM | 1.96 µM | CC(C)C[C@@]1([C@@H](CCN2C(=O)c3ccccc3C2=O)C(=O)NO)CCN(Cc2ccccc2)C1=O (relative stereo) [Example 22, α-[2-(1,3-Dihydro-1,3-dioxo-2H-isoindol-2-yl)ethyl]-N-hydroxy-3-(2-methylpropyl)-2-oxo-1-(phenylmethyl)-3-pyrrolidineacetamide] |
| 1.28 µM | 1.9 µM | 0.649 µM | CC(C)C[C@@]1([C@@H](CCN2C(=O)c3ccccc3C2=O)C(=O)NO)CCN(Cc2cccc(F)c2)C1=O (relative stereo) [Example 25] |
| 0.981 µM | 0.484 µM | 0.57 µM | CNC(=O)[C@H](Cc1ccccc1)N1CC[C@@](CC(C)C)([C@@H](CCN2C(=O)c3ccccc3C2=O)C(=O)NO)C1=O (relative stereo) [Example 29, [R,R-(R*,R*)]-α^3-[2-(1,3-Dihydro-1,3-dioxo-2H-isoindol-2-yl)ethyl]-N^3-hydroxy-N^1-methyl-3-(2-methylpropyl)-2-oxo-α^1-(phenylmethyl)-1,3-pyrrolidinediacetamide] |
| 0.34 µM | 0.925 µM | 2.3 µM | CC(C)C[C@@]1(CC(=O)NO)CCN([C@@H](Cc2ccccc2)C(=O)N2C[C@@H](C)N[C@@H](C)C2)C1=O (relative stereo) [Example 56, [1(1S)-[1[R*(R*)],3α,5α]]-1-[2-(3,5-Dimethyl-1-piperazinyl)-2-oxo-1-(phenylmethyl)ethyl]-N-hydroxy-3-(2-methylpropyl)-2-oxo-3-pyrrolidineacetamide] |
| 0.011 µM | 0.0033 µM | 0.23 µM | CC(C)C[C@@]1(CC(=O)NO)CCN([C@H](C(=O)NCC2CC2)C2CCCCC2)C1=O (relative stereo) [Example 59, [S-(R*,R*)]-α^1 -Cyclohexyl-N^1-cyclopropylmethyl-N^3-hydroxy-3-(2-methylpropyl)-2-oxo-1,3-pyrrolidinediacetamide] |
| 0.227 µM | 0.51 µM | 1.05 µM | CC(C)C[C@@]1([C@@H](CCN2C(=O)c3ccc(C(F)(F)F)cc3C2=O)C(=O)NO)CCN(CCc2ccccc2)C1=O (relative stereo) [Example 65, N-Hydroxy-3-(2-methylpropyl)-2-oxo-1-(2-phenylethyl)-α-[2-(5-trifluoromethyl-1,3-dihydro-1,3-dioxo-2H-isoindol-2-yl)ethyl]-3-pyrrolidineacetamide] |
| 0.036 µM | 5 µM | 0.216 µM | CC(C)C[C@@]1([C@@H](CCN2C(=O)c3ccccc3C2=O)C(=O)NO)CCN(CCCc2ccccc2)C1=O (relative stereo) [Example 67, α-[2-(1,3-Dihydro-1,3-dioxo-2H-isoindol-2-yl)ethyl]-N-hydroxy-3-(2-methylpropyl)-2-oxo-1-(3-phenylpropyl)-3-pyrrolidineacetamide] |
| 0.16 µM | 1.46 µM | 0.35 µM | CC(C)C[C@@]1([C@@H](CCN2C(=O)c3ccccc3C2=O)C(=O)NO)CCN(CCc2ccc(F)cc2)C1=O (relative stereo) [Example 68, 1-[2-(4-Fluorophenyl)ethyl]-α-[2-(1,3-dihydro-1,3-dioxo-2H-isoindol-2-yl)ethyl]-N-hydroxy-3-(2-methylpropyl)-2-oxo-3-pyrrolidineacetamide] |
| 0.498 µM | 1.2 µM | 0.214 µM | CC(C)C[C@@]1([C@@H](CCN2C(=O)c3ccccc3S2(=O)=O)C(=O)NO)CCN(CCc2ccccc2)C1=O (relative stereo) [Example 69, α-[2-(o-benzoic sulfimide)ethyl]-N-hydroxy-3-(2-methylpropyl)-2-oxo-1-(2-phenylethyl)3-pyrrolidineacetamide] |
| 0.083 µM | 0.039 µM | 0.64 µM | CC(C)C[C@@]1([C@H](CCN2C(=O)c3ccccc3C2=O)C(=O)NO)CCN(CCc2ccc(F)cc2)C1=O (relative stereo) [Example 72, 1,3-Dihydro-N-hydroxy-α-[3-(2-methylpropyl)-2-oxo-1-[2-(4-fluorophenyl)ethyl]-3-pyrrolidinyl]-1,3-dioxo-2H-isoindole-2-butanamide] |
| 0.264 µM | 0.074 µM | 0.295 µM | CC(C)C[C@@]1([C@@H](CCNC(=O)c2ccc(F)cc2)C(=O)NO)CCN(CCc2ccccc2)C1=O (relative stereo) [Example 75, α-[2-[(4-Fluorobenzoyl)amino]ethyl]-N-hydroxy-3-(2-methylpropyl)-2-oxo-1-(2-phenylethyl)-3-pyrrolidineacetamide] |
| 3.3 µM | 0.298 µM | 10.8 µM | CC(C)C[C@@]1([C@@H](CCNC(=O)c2cccc([N+](=O)[O-])c2)C(=O)NO)CCN(CCc2ccccc2)C1=O (relative stereo) [Example 76, N-Hydroxy-3-(2-methylpropyl)-α-[2-[(3-nitrobenzoyl)amino]ethyl]-2-oxo-1-(2-phenylethyl)-3-pyrrolidineacetamide] |
| – | 0.0685 µM | 0.146 µM | CC(C)C[C@@]1([C@@H](CCNC(=O)c2cccc(F)c2)C(=O)NO)CCN(CCc2ccccc2)C1=O (relative stereo) [Example 77, α-[2-[(3-Fluorobenzoyl)amino]ethyl]-N-hydroxy-3-(2-methylpropyl)-2-oxo-1-(2-phenylethyl)-3-pyrrolidineacetamide] |
| 0.115 µM | 4.37 µM | – | CC(C)C[C@@]1([C@@H](CCN2C(=O)c3ccccc3C2=O)C(=O)NO)CCN(CCc2ccccc2)C1=O [Example 5, (3S)-α-[2-(1,3-Dihydro-1,3-dioxo-2H-isoindol-2-yl)ethyl]-N-hydroxy-3-(2-methylpropyl)-2-oxo-1-(2-phenylethyl)-3-pyrrolidineacetamide] |

From US5712300A, “Hydroxamic acid derivatives useful for the treatment of diseases related to connective tissue degradation” (priority 1997, dated 1998)
